{"source": "patent US20200064357A1", "about": "“METHODS FOR DETERMINING AND MONITORING GASTROINTESTINAL INFLAMMATION” (Protagonist Therapeutics, Inc., priority 2016, published 2020)", "test_system": "Sprague-Dawley rats", "experiment": "Protein biomarkers in feces, TNBS rat colitis model, ELISA (Example E2)", "format": "in vivo", "conditions": "31 mg/kg/day, normalized to total protein, vs vehicle", "experimental": "The animals were grouped into sham, vehicle, and Peptide 993 treatment at 31 mg/kg/day. Feces were collected from the distal colon of rats and were immediately frozen at the time of necropsy. The feces samples were weighed and homogenized in extraction buffer (PBS pH 7.4 containing Pierce Protease Inhibitors, 3× volume:weight). The samples were incubated on ice for 90 minutes, with intermittent vortexing for complete homogenization. After centrifugation at 3000 g at 4 C, the homogenates were transferred to fresh tubes and subjected to another centrifugation at 14000 g at 4 C. The cleared supernatants were saved in multiple aliquots and stored at −80 C until analysis.\nThe total protein in each sample was quantified using BCA assay. LCN2, MPO, and MMP-9 protein concentration in the feces samples were analysed using commercially available rat ELISA kits. For LCN2, the samples were diluted at different ratios with assay dilution buffer to capture the large variation in concentration amongst the different treatment groups. The dilution ratios used were 1:20 (sham), 1:200, 1:1000, 1:2000, and 1:4000 (vehicle and Peptide 993).\nThe concentration of LCN2 was normalized to the total protein measured for the sample. […] Statistical analysis was performed using 1-Way-ANOVA with Dunnetts's multiple comparison.\nFecal homogenates were analyzed for Myeloperoxidase (MPO) concentration using the Rat MPO ELISA kit (Catalog # HK105, Hycult biotech). The samples were used at dilutions ranging from 1:20 to 1:1000, to ensure that the measurements were within the range and sensitivity of the kit. […] A linear equation was used to fit the Standard Curve and the fitting parameters were used to calculate the concentration of MPO. The concentration of MPO for each sample was normalized to the total protein measured for the sample as described above. […] Statistical analyses were performed using 1-Way-ANOVA with Dunnetts's multiple comparison.", "note": "Entries after “also recorded” stand apart in the source; their conditions may differ.", "data": [{"compound": "CC(=O)NC(CCCNC(=N)N)C(=O)NC1CCSCC(C(=O)NC(Cc2ccc(OCCN)cc2)C(=O)NC(Cc2ccc3ccccc3c2)C(=O)NC2(C(=O)NC(CCC(=O)O)C(=O)NC(CC(N)=O)C(=O)NC(CC(N)=O)C(N)=O)CCOCC2)NC(=O)C(CCC(N)=O)NC(=O)C(Cc2c[nH]c3ccccc23)NC(=O)C(C(C)O)NC(=O)C(CCC(N)=O)NC1=O", "note": "(stereo not drawn) [Peptide 993, Ac-[(D)-Arg]-cyclo[[Abu]-QTWQC]-[Phe[4-(2-aminoethoxy)]]-[2-Nal]-[4-amino-4-carboxy-tetrahydropyran]-ENN-NH2]", "values": [{"measurement": "fecal LCN2 concentration", "result": "statistically significant decrease; also recorded: stastically significant decrease"}, {"measurement": "fecal MMP-9 concentration", "result": "stastically significant decrease"}, {"measurement": "fecal MPO concentration", "result": "statistically significant decrease; also recorded: stastically significant decrease"}]}]}
